PubChem BioAssay AID1996
In brackets after ≈: the same amount, converted by molar mass.

details: buffer; pH 7.4; 200.0 µM

solubility kinetic [µg/mL] | Compound
36.2 (≈ 139 µM) | O=C(O)C1C2C=CC(C2)C1C(=O)NCc1ccco1 (configuration not stated)
> 53.8 | Cc1cccn2c(=O)nc(SCC(=O)NCc3ccc(F)cc3)nc12
31.1 (≈ 145 µM) | Cc1cc(=O)cc(C)n1-c1ccccc1N
> 40.5 | C#Cc1cccc(NC(=O)C2CCN(C(C)=O)CC2)c1
> 49.6 | COc1ccc(C(=O)NC2CC3CCCC(C2)N3CC(C)C)cc1 (configuration not stated)
6 (≈ 16.7 µM) | O=C(NC1CCN(C(=O)Nc2ccc(F)cc2)CC1)c1cccc(F)c1
> 48.1 | O=S(=O)(NCCN1CCOCC1)c1ccc2ccccc2c1
11.2 (≈ 30.9 µM) | O=C(Nc1ccccc1C(=O)Nc1ccncc1)c1ccc([N+](=O)[O-])cc1
> 43.4 | COc1ccc(C(CC(=O)N2CCCCC2)C(C)C)cc1 (configuration not stated)
49.1 (≈ 143 µM) | Cn1c(=O)[nH]c(=O)c2c1nc(NCCN)n2CCOc1ccccc1
> 43.2 | O=C(CC1CCOCC1)Nc1ccc(Cl)c(Cl)c1
2.6 (≈ 7.96 µM) | O=[N+]([O-])c1ccc(C(O)CSC(=S)N2CCCCC2)cc1 (configuration not stated)
> 36.9 | CCCC(=O)OCC(=O)Nc1ccccc1C#N
4.4 (≈ 17.2 µM) | CN1C(=O)/C(=C/C=C2\SCCN2C)OC1=S
< 0.3 | COc1ccc(C(=O)Nc2nc3ccccc3s2)cc1
3.4 (≈ 13.6 µM) | C(=C\c1nc(-c2cccnc2)no1)/c1ccccc1
20.2 (≈ 62.1 µM) | O=C(CCCn1cnc2ccccc2c1=O)Nc1ccccc1F
> 49.3 | COCCCN1C(=O)CS/C1=N\S(=O)(=O)c1ccccc1
> 43.6 | Cc1c(-c2ccc(Cl)cc2)[n+](=O)c2c(n1[O-])CCCC2
29.5 (≈ 128 µM) | CCOc1ccc(NC2=CC(=O)CCC2)cc1
> 50.2 | Cl.O=C(O)CC1(CC(=O)N2CCN(CCO)CC2)CCCC1
0.9 (≈ 2.76 µM) | CC(C)c1nc2oc3c(N(C)CCO)ncnc3c2c2c1CCC2
> 33.5 | O=C(NCCC1CCCC1)c1cccs1

solubility kinetic [µg/mL] | Compound
43.8 (≈ 137 µM) | Cn1c(C(=O)N2CCN(c3ccccn3)CC2)cc2ccccc21
15 (≈ 42.6 µM) | COc1cc2c(cc1OC)CN(C(=O)COc1ccccc1C#N)CC2
> 41.4 | Cc1cc(/C=C/C(=O)O)c(C)n1-c1ccc(Cl)cc1
42.4 (≈ 131 µM) | O=C(N/C(=C\c1ccccc1)C(=O)N1CCCCC1)c1ccco1
> 32.7 | CC(C)=C(NC(=O)c1ccccc1)C(N)=O
21.4 (≈ 65 µM) | CCOc1ccc(C(=O)O/N=C(\N)c2ccccn2)cc1OCC
38.1 (≈ 141 µM) | Cc1ccccc1OC(C)C(=O)NCc1cccnc1 (configuration not stated)
> 52.2 | CC(CN1CCCCC1)OC(=O)COc1ccc(Cl)cc1.Cl (configuration not stated)
> 47.9 | CC(=O)NC1(C(F)(F)F)NC(=O)N(c2ccc(F)cc2)C1=O (configuration not stated)
8.8 (≈ 27.4 µM) | COc1ccccc1NC(=O)c1ccc(C(=O)c2ccccc2)o1
42.5 (≈ 127 µM) | N#C/C(=C\c1cccc(Oc2ccccc2)c1)C(=O)N1CCOCC1
34.3 (≈ 115 µM) | O=C(Nc1ccccc1Oc1ccccc1)C1=COCCO1
38.2 (≈ 112 µM) | CCNc1nc2c(c(=O)n(C)c(=O)n2C)n1CCCc1ccccc1
> 28.1 | CCC1(C)SC(N)=NN1C(C)=O (configuration not stated)
35.9 (≈ 120 µM) | O=C(O)c1cccc(Nc2ccc3nonc3c2[N+](=O)[O-])c1
> 43.5 | CC#CC[N+](C)(C)CCCCCCCC.[Br-]
> 43.7 | CCC(=O)c1ccc(OCC(=O)N2CCCC2)c(OC)c1
> 38.9 | Nc1cn(C2OC(CO)C(O)C2O)c(=O)[nH]c1=O (configuration not stated)
> 41 | Cc1ccc(CCC(=O)Nc2ccccc2C(=O)O)o1
0.5 (≈ 1.48 µM) | O=S(=O)(c1ccc(F)cc1)N1CCN(c2ccc(F)cc2)CC1
4.7 (≈ 17 µM) | COc1ccccc1NCC(=O)c1ccc(Cl)cc1
36.7 (≈ 104 µM) | CC1CC(C)(C)NC(=S)N1CCCC(=O)Nc1ccc(Cl)cc1 (configuration not stated)
37.7 (≈ 124 µM) | c1ccc(CN2CCN(c3cnc4ccccc4n3)CC2)cc1

solubility kinetic [µg/mL] | Compound
43.2 (≈ 144 µM) | CC(C)(C)CC(=O)Nc1cc2c3c(c1)CCC(=O)N3CCC2
> 48.8 | O=C(c1ccccc1)c1ccc(OCC(O)CN2CCCC2)cc1 (configuration not stated)
7.2 (≈ 22.2 µM) | COc1ccc(CNC(=O)c2cc3cccc(O)c3oc2=N)cc1
6 (≈ 20.8 µM) | Fc1ccccc1OCCn1c(=S)[nH]c2ccccc21
21.8 (≈ 96.8 µM) | COC(=O)c1sccc1NC(=O)C1CC1
> 51.1 | O=C(c1ccc([N+](=O)[O-])cc1)N1CCN(C(=O)c2cccnc2)CC1
> 52.1 | COC(=O)C1=C(N)Oc2c(oc(CO)cc2=O)C1c1ccc(F)cc1 (configuration not stated)
> 63.7 | CC(C)(C)NS(=O)(=O)c1ccc(NC(=O)CS(=O)(=O)Cc2ccccc2)cc1
1.6 (≈ 5.03 µM) | Cc1ccc(NS(=O)(=O)c2ccc3c(c2)oc(=O)n3C)cc1
> 46.7 | S=C(Nc1ccccc1)N1CCN(Cc2ccccc2)CC1
40.7 (≈ 120 µM) | CN1CCN(C(=O)/C(=C/c2ccco2)NC(=O)c2ccccc2)CC1
1.7 (≈ 6.87 µM) | CCOC(=O)/C(C#N)=C1\CC2CCC1(C)C2(C)C (configuration not stated)
> 49.3 | COc1ccccc1C(=O)OC(C)CN1CCN(C)CC1.Cl (configuration not stated)
> 46 | CNC(=O)COC(=O)c1ccc(Cl)c(S(N)(=O)=O)c1
> 37.4 | CN1CCC(=NOc2ccc([N+](=O)[O-])cc2)CC1
33.3 (≈ 108 µM) | O=c1[nH]c(N2CCCCC2)nc2ncn(Cc3ccccc3)c12
> 50.1 | COCCNC(=O)COCc1cc(-c2ccc3c(c2)OCO3)on1
21.5 (≈ 64.5 µM) | COc1ccc(S(=O)(=O)Nc2cccnc2)c(Cl)c1Cl
10.8 (≈ 36 µM) | Cc1cc([N+](=O)[O-])ccc1NCc1ccc2c(c1)OCCO2
14.9 (≈ 43.6 µM) | Cc1cc(C(=O)COC(=O)C2=COCCO2)c(C)n1-c1ccccc1
> 46.6 | COc1cc(SC)ccc1C(=O)NCCN1CCOCC1
< 0.8 | CC(C)(C)S(=O)(=O)Cc1nc(-c2ccc(Cl)c(Cl)c2)cs1
20.4 (≈ 71.8 µM) | O=C(Nc1nccs1)c1cncc(Br)c1

solubility kinetic [µg/mL] | Compound
21.4 (≈ 129 µM) | CN(C)C(=S)c1ccccc1
17.4 (≈ 61.8 µM) | Oc1ccc(-c2ccccc2)cc1CN1CCCCCC1
> 45.5 | Cc1ccc(C(=O)NCC(=O)N2CCCN(C)CC2)cc1C
44.7 (≈ 129 µM) | O=C(COc1ccccc1Cl)NCCCNC(=O)c1ccncc1
42.3 | Cc1cc(OCC(O)CN2CCCC2)cc(C)c1Cl.Cl (configuration not stated)
57 (≈ 134 µM) | O=C(COC(=O)Cc1ccc(S(=O)(=O)N2CCOCC2)s1)Nc1ccccc1
> 51.7 | CCN(CC(=O)NCc1cccs1)C(=O)Cc1ccc(C)c(C)c1
26.4 (≈ 54.4 µM) | Cc1ccc(S(=O)(=O)N2CCOCC2)cc1NC(=O)COC(=O)CCc1c[nH]c2ccccc12
9.6 (≈ 36.8 µM) | Cc1nc(Nc2ccc(Cl)cc2)c(C#N)c(=O)[nH]1
> 26.3 | CC(=O)NC(CC(=O)O)C(=O)O (configuration not stated)
> 50.5 | CC(=O)c1cc(CN2CCN(CC=C(C)C)C(CCO)C2)cs1 (configuration not stated)
> 31.4 | S=c1[nH]nc(Nc2ccccc2)s1
> 34.2 | CCCn1cnc2c(oc3ccccc32)c1=O
5.1 (≈ 16.8 µM) | CSc1cccc(NC(=S)NC(=O)c2cccnc2)c1
> 35.7 | Cc1csc(NC(=O)c2sccc2C)n1
41 (≈ 136 µM) | CCC(C(=O)Nc1c(C)cc(C)cc1C)N1CCCCCC1 (configuration not stated)
> 50.8 | O=C(CSc1n[nH]c(=O)n1C1CC1)NCc1ccccc1Cl
> 48.1 | CCN(CC)S(=O)(=O)c1ccc(NCc2ccccn2)nc1
> 43.5 | CC(=O)/C(C#N)=C1\NC(=O)C(Cc2ccc(F)cc2)S1 (configuration not stated)
> 52.7 | CC(=O)Nc1ccccc1C(=O)N1CCN(c2cccc(C)c2C)CC1
< 0.7 | CN1C(=O)/C(=C\c2cccc(OCc3ccccc3)c2)SC1=S
> 52.8 | NC(=O)C1CCCN(C(=O)CCCNC(=O)c2ccc(Cl)cc2)C1 (configuration not stated)
> 40.5 | CC1CN(C(=O)Nc2ccc(F)cc2F)CC(C)O1 (configuration not stated)

solubility kinetic [µg/mL] | Compound
> 45 | O=C(CNC1CCCCC1)Nc1cccc(C(F)(F)F)c1
14.8 (≈ 52.1 µM) | COc1ccc(-c2csc(C)n2)cc1Br
31.5 (≈ 140 µM) | O=C1CNC(=S)N1CCCn1ccnc1
5.1 (≈ 14.2 µM) | Oc1ccccc1C(=S)N1CCN(C(=S)c2ccccc2O)CC1
> 45.4 | O=C(O)CSc1ccc(S(=O)(=O)N2CCCC2)cn1
29.4 (≈ 134 µM) | CN1CCC(NC(=O)c2ccncc2)CC1
< 0.4 | O=C(Nc1ccc(NC(=O)c2ccccc2F)cc1)c1ccccc1F
47.8 (≈ 145 µM) | Cc1ccccc1OCc1ccc(C(=O)N2CC(C)OC(C)C2)o1 (configuration not stated)
< 0.3 | O=C(Nc1ccc(Br)cn1)C1CCN(S(=O)(=O)c2cccs2)CC1
19.6 (≈ 58.4 µM) | CN1CCN(c2ccc(NC(=O)c3cc4ccccc4o3)cc2)CC1
> 48.4 | CN1C(=O)N(CC(=O)Nc2nccs2)C(=O)C12CCCCC2
0.5 (≈ 1.44 µM) | Cc1cccc(NC(=S)NC(=O)c2ccc(-c3ccccc3)cc2)n1
48.6 (≈ 145 µM) | CC1CCCC(NC(=O)COC(=O)c2ccccc2[N+](=O)[O-])C1C (configuration not stated)
> 43.3 | Cc1nnc(SCC(=O)NC2CC2)n1-c1ccccc1
10.8 (≈ 40.6 µM) | N#Cc1ccccc1NC(=O)c1ccc2c(c1)OCO2
36.5 (≈ 117 µM) | Cc1csc(NC(=O)Cc2ccc(Br)cc2)n1
22.6 (≈ 72.3 µM) | COc1ccc(-c2cn(-c3ccccc3)c(=S)[nH]2)cc1OC
< 0.7 | O=C(Nc1ccc(OCc2ccccc2)cc1)c1cccs1
10.3 (≈ 34.1 µM) | O=C(CNC(=O)OCc1ccccc1)Nc1ccc(F)cc1
> 39.3 | O=C(NNC(=O)c1cccnc1)NC1CCCCC1
> 35.5 | O=c1[nH]cc(COCC(F)CCl)c(=O)[nH]1 (configuration not stated)
40.9 (≈ 109 µM) | Cc1onc(-c2c(Cl)cccc2Cl)c1C(=O)N(C)Cc1ccccc1

Compound | solubility kinetic [µg/mL]
Fc1ccc(CNCCc2c[nH]c3ccccc23)cc1 | > 40.2
O=C1CN=C(c2ccc(Cl)cc2)c2oc3ccccc3c2N1 | < 0.3
Cc1ccccc1CCNCc1cc2cccc(C)c2[nH]c1=O | > 46
Cl.c1ccc(CCNCc2cccs2)cc1 | 32.6
CN(C)C(=O)O/N=C(\N)COc1ccc(C(C)(C)C)cc1 | 36 (≈ 123 µM)
Cc1ccc(NCc2ccco2)cc1C.O=C(O)C(=O)O | 4.7
NC1=NC(c2cccnc2)n2c(nc3ccccc32)N1 (configuration not stated) | > 39.6
Cc1ccc(OCCNCc2ccccc2)c(C)c1.O=C(O)C(=O)O | 45.8
